Data published in US11718628B2, “SREBP inhibitors comprising a 6-membered central ring” (Capulus Therapeutics, LLC, priority 2018, dated 2023).
≈ marks a conversion by molar mass, not a printed value.

Assays:
[1] = Half-life in human liver microsomes; type: in vitro ADME; conditions: human, liver microsomes, NADPH, 37° C., read-out: G: half-life human liver microsomes
Protocol: (§1) Half-life Human Microsomes: Compounds were evaluated for stability in human liver microsomes. A 10 mM stock solution of the compound being evaluated was prepared in DMSO and diluted with water:acetonitrile (1:1) to a concentration of 1 mM. A working concentration of 100 μM was prepared by further dilution with water:acetonitrile (1:1). To make the preincubation mixture, 2.5 μL of the diluted compound was combined with 75 μL of human liver microsomes at 3.33 mg/mL, and 85 μL of 100 mM potassium phosphate buffer, and this mixture was pre-incubated for 10 min at 37° C. To make the 60 minute mixture without cofactor, 32.5 μL of the preincubation mixture was combined with 17.5 μL of 100 mM potassium phosphate buffer and incubated for 60 min at 37° C. To make the 0 min sample with cofactor (NADPH), 16.25 μL of the preincubation mixture was combined with 200 μL of acetonitrile containing internal standard and 8.75 μL of cofactor (NADPH). To make the incubation mixture, 62 μL of cofactor (2.85 mM) was combined with the remaining incubation mixture, and incubated for 60 min at 37° C. To prepare the sample mixture to be evaluated, 25 μL incubation mixture was combined with 200 μL of acetonitrile containing internal standard and vortexed for 5 min at 1200 rpm, then centrifuged for 10 min at 4000 rpm. The supernatant was diluted 2 fold with water and injected on LC-MS/MS. The sample mixture was evaluated by LC-MS/MS using 10 mM ammonium acetate with 0.1% FA as the aqueous mobile phase, and methanol as the organic mobile phase.

[2] = Half-life in mouse liver microsomes; type: in vitro ADME; conditions: mouse, liver microsomes, read-out: H: half-life of mouse liver microsomes
Protocol: as §1
Half-life Mouse Microsomes: Compounds were evaluated in mouse liver microsomes following a similar procedure as described above for human liver microsomes. A similar procedure could be used to evaluate compounds in rat liver microsomes.

Kinetic solubility = type: physicochemical; conditions: aqueous buffer, kinetic from dmso stock, pH 7.4 buffer, room temperature, 1.0% DMSO, read-out: I: kinetic solubility class
Protocol: Kinetic Solubility Procedure: A 10 mM stock solution of a compound was prepared in DMSO, then 4 μL of the stock was added to a deep well plate containing 396 μL of pH 7.4 buffer. The sample plate was vortexed at 800 rpm for 24 h on thermomixer at room temperature. The plate was sealed well during the incubation process. The DMSO content in the sample was 1.0%. The concentration of the evaluated compound in the final incubation was 100 μM. At the end of the incubation period, the sample plate was centrifuged at 4000 rpm for 10 min and analyzed in LC-UV against a calibration curve (CC). Values <10 μg/mL=Low; 10 to 60 μg/mL=Medium; >60 μg/mL=High.

half-life at 1 µM [1] [min] | half-life at 1 µM [2] [min] | solubility kinetic at 24 h (Kinetic solubility) [µg/mL] | Compound
9.52 | 39.2 | 10 to 60 (≈ 21.4 to 128 µM) | CC(C)(C)c1cc(-c2cncc(-c3ccc(C(=O)N4CCC(O)CC4)cc3Cl)c2F)ccn1
53.2 | 14.4 | 10 to 60 (≈ 20.9 to 125 µM) | CC(C)(C)c1cc(-c2cncc(-c3ccc(NC(=O)OCCN4CCCC4)cc3Cl)c2)ccn1
16.1 | 38.5 | 10 to 60 (≈ 20.8 to 125 µM) | COc1ncc(-c2ccc(C(=O)N3CCC(O)CC3)cc2Cl)cc1-c1ccnc(C(C)(C)C)c1
7.8 | 41.7 | 10 to 60 (≈ 21.6 to 129 µM) | Cc1ncc(-c2ccc(C(=O)N3CCC(O)CC3)cc2Cl)cc1-c1ccnc(C(C)(C)C)c1
20.5 | 68.3 | < 10 | O=C(c1ccc(-c2cncc(-c3ccnc(C4CC4)c3)c2)c(Cl)c1)N1CCC(F)C(O)C1 (stereo not drawn)
9.94 | 16.4 | < 10 | O=C(Nc1ccc(-c2cncc(-c3ccnc4c3OCCO4)c2)c(Cl)c1)OC1CC1
7.28 | 12.4 | 10 to 60 (≈ 22.9 to 138 µM) | O=C(c1ccc(-c2cncc(-c3ccnc(C4CC4)c3)c2)c(Cl)c1)N1CCC(F)CC1
16.2 | 66.7 | 10 to 60 (≈ 23 to 138 µM) | O=C(c1ccc(-c2cncc(-c3ccnc(C4CC4)c3)c2)c(Cl)c1)N1CCC[C@H]1CO
39.2 | 87.2 | 10 to 60 (≈ 23.8 to 143 µM) | O=C(c1ccc(-c2cncc(-c3ccnc(C4CC4)c3)c2)c(Cl)c1)N1CC[C@H](O)C1
21.3 | 42.4 | 10 to 60 (≈ 21.7 to 130 µM) | O=C(c1ccc(-c2cncc(-c3ccnc(C4CC4)c3)c2)c(Cl)c1)N1CC2CCC(C1)C2O (stereo not drawn)
27.7 | 120 | 10 to 60 (≈ 20.8 to 125 µM) | CC(C)(C)c1cc(-c2cncc(-c3ccc(C(=O)N4CCC(O)C(O)CC4)cc3Cl)c2)ccn1 (stereo not drawn)
37.4 | 104 | < 10 | CS(=O)(=O)Nc1ccc(-c2cncc(-c3ccnc4c3OCCO4)c2)c(Cl)c1
120 | 120 | < 10 | CC(C)OC(=O)Nc1ccc(-c2cncc(-c3ccnc(C(C)(C)O)c3)c2)c(Cl)c1
116 | 120 | < 10 | CC(C)(O)c1cc(-c2cncc(-c3ccc(NS(C)(=O)=O)cc3Cl)c2)ccn1
55.9 | 97.9 | < 10 | CC(C)OC(=O)Nc1ccc(-c2cncc(-c3ccnc(C4(F)CCC4)c3)c2)c(Cl)c1
41.3 | 77.5 | 10 to 60 (≈ 21.4 to 128 µM) | CC(C)(CF)c1cc(-c2cncc(-c3ccc(C(=O)N4CCC(O)CC4)cc3Cl)c2)ccn1
11.2 | 1.94 | 10 to 60 (≈ 21.5 to 129 µM) | CC(C)(C)c1cc(-c2cncc(-c3ccc(C(=O)N4CCC(=O)C(F)C4)cc3Cl)c2)ccn1 (stereo not drawn)
14 | 64.3 | 10 to 60 (≈ 20.9 to 126 µM) | CC(C)(C)c1cc(-c2cncc(-c3ccc(C(=O)N4CCC[C@@H]4C(C)(C)O)cc3Cl)c2)ccn1
16.8 | 27.4 | 10 to 60 (≈ 20.9 to 126 µM) | CC(C)(C)c1cc(-c2cncc(-c3ccc(C(=O)N4CCC[C@H]4C(C)(C)O)cc3Cl)c2)ccn1
120 | 98.5 | 10 to 60 (≈ 21.4 to 128 µM) | CC(C)(C)c1cc(-c2cncc(-c3ccc(C(=O)N4CCC(O)C(F)C4)cc3Cl)c2)ccn1 (stereo not drawn)

half-life at 1 µM [1] [min] | half-life at 1 µM [2] [min] | solubility kinetic at 24 h (Kinetic solubility) [µg/mL] | Compound
6.33 | 47.8 | 10 to 60 (≈ 20.9 to 126 µM) | CC1CC(O)CC(C)N1C(=O)c1ccc(-c2cncc(-c3ccnc(C(C)(C)C)c3)c2)c(Cl)c1 (stereo not drawn)
43.7 | 32.5 | 10 to 60 (≈ 19.9 to 120 µM) | CC(C)(C)c1cc(-c2cncc(-c3ccc(C(=O)N4CCC(O)(O)C(F)(F)C4)cc3Cl)c2)ccn1
76.7 | 120 | 10 to 60 (≈ 21.6 to 129 µM) | O=C(c1ccc(-c2cncc(-c3ccnc(C4(O)CCC4)c3)c2)c(Cl)c1)N1CCC(O)CC1
9.51 | 40.4 | 10 to 60 (≈ 20.7 to 124 µM) | CC(C)(C)c1cc(-c2cncc(-c3ccc(C(=O)N(CCCO)CCCO)cc3Cl)c2)ccn1
32.3 | 54.4 | 10 to 60 (≈ 21.5 to 129 µM) | O=C(c1ccc(-c2cncc(-c3ccnc(C4(F)CCC4)c3)c2)c(Cl)c1)N1CCC(O)CC1
28.1 | 88.6 | 10 to 60 (≈ 20.6 to 123 µM) | CC(C)(C)c1cc(-c2cncc(-c3ccc(C(=O)N4CCC(O)C(F)(F)C4)cc3Cl)c2)ccn1 (stereo not drawn)
12.2 | 21.7 | 10 to 60 (≈ 21.4 to 128 µM) | CC(C)(C)c1cc(-c2cncc(-c3ccc(C(=O)N4CCC(F)C(O)C4)cc3Cl)c2)ccn1 (stereo not drawn)
59 | 38.3 | 10 to 60 (≈ 21.6 to 129 µM) | CC(C)(C)c1cc(-c2cncc(-c3ccc(C(=O)N4CCC4C(C)(C)O)cc3Cl)c2)ccn1 (stereo not drawn)
7.35 | 12.4 | 10 to 60 (≈ 21.6 to 129 µM) | CC(C)(C)c1cc(-c2cncc(-c3ccc(C(=O)N4CC(C(C)(C)O)C4)cc3Cl)c2)ccn1
112 | 86.7 | < 10 | CS(=O)(=O)Nc1ccc(-c2cncc(-c3ccnc(C4CC4)c3)c2)c(Cl)c1
120 | 81.1 | < 10 | CC(C)OC(=O)Nc1ccc(-c2cncc(-c3ccnc(C4CC4)c3)c2)c(Cl)c1
63.6 | 105 | < 10 | CC(C)OC(=O)N(C)c1ccc(-c2cncc(-c3ccnc(C(C)(C)C)c3)c2)c(Cl)c1
1.79 | 120 | 10 to 60 (≈ 21.6 to 130 µM) | CC(C)(C)c1cc(-c2cncc(-c3ccc(C(=O)N4CC5(CC(O)C5)C4)cc3Cl)c2)ccn1
10.1 | 32 | 10 to 60 (≈ 22.2 to 133 µM) | CC(C)(C)c1cc(-c2cncc(-c3ccc(C(=O)N4CCC[C@@H]4CO)cc3Cl)c2)ccn1
5.52 | 28.6 | 10 to 60 (≈ 22.2 to 133 µM) | CC(C)(C)c1cc(-c2cncc(-c3ccc(C(=O)N4CCC[C@H]4CO)cc3Cl)c2)ccn1
12.9 | 28 | 10 to 60 (≈ 22.2 to 133 µM) | CC1(O)CCN(C(=O)c2ccc(-c3cncc(-c4ccnc(C(C)(C)C)c4)c3)c(Cl)c2)C1 (stereo not drawn)
14.4 | 38.7 | 10 to 60 (≈ 22.9 to 138 µM) | CC(C)(C)c1cc(-c2cncc(-c3ccc(C(=O)N4CC[C@H](O)C4)cc3Cl)c2)ccn1
5.01 | 31.5 | 10 to 60 (≈ 22.9 to 138 µM) | CC(C)(C)c1cc(-c2cncc(-c3ccc(C(=O)N4CC[C@@H](O)C4)cc3Cl)c2)ccn1
6.72 | 39.8 | 10 to 60 (≈ 22.9 to 138 µM) | CC1(O)CN(C(=O)c2ccc(-c3cncc(-c4ccnc(C(C)(C)C)c4)c3)c(Cl)c2)C1
11 | 11 | < 10 | CC(C)(C)c1cc(-c2cncc(-c3ccc(C(=O)N4CCC(F)CC4)cc3Cl)c2)ccn1
